Assay results as given in PubChem BioAssay (NCI).
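Compound exposure: 48 hours, 5 concentrations, 96-well plates. TGI is the concentration that stops growth completely.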

Key:
Assay in all cases: inhibition of tumour cell growth, NCI panel, 48 h
OVCAR-8 ovarian = test system: OVCAR-8 ovarian
786-0 renal = test system: 786-0 renal
HT29 colon = test system: HT29 colon
UACC-62 melanoma = test system: UACC-62 melanoma
K-562 leukemia = test system: K-562 leukemia
NCI-H226 lung = test system: NCI-H226 lung
MOLT-4 leukemia = test system: MOLT-4 leukemia
HCT-15 colon = test system: HCT-15 colon
NCI/ADR-RES ovarian = test system: NCI/ADR-RES ovarian
UO-31 renal = test system: UO-31 renal

Structure (SMILES)	TGI (OVCAR-8 ovarian)	TGI (786-0 renal)	TGI (HT29 colon)	TGI (UACC-62 melanoma)	TGI (K-562 leukemia)	TGI (NCI-H226 lung)	TGI (MOLT-4 leukemia)	TGI (HCT-15 colon)	TGI (NCI/ADR-RES ovarian)	TGI (UO-31 renal)
COC(=O)N[C@H](C(=O)O)C(C)O[Si](C)(C)C(C)(C)C (some centres undefined)	> 100 µM	> 100 µM	> 100 µM	> 100 µM	> 100 µM	> 100 µM	> 100 µM	> 100 µM	> 100 µM	> 100 µM
NCC(O)CNC(=O)c1ccc(-c2ccc(-c3ccc(C(=O)NCC(O)CN)cc3)o2)cc1 (centres undefined)	> 100 µM	48.5 µM	> 100 µM	> 100 µM	> 100 µM	55.4 µM	> 100 µM	> 100 µM	> 100 µM	> 100 µM
COc1ccccc1NC(=O)CC(=O)N1N=C(N2c3ccccc3Sc3ccccc32)CC1c1ccccc1 (centres undefined)	> 100 µM	> 100 µM	> 100 µM	> 100 µM	> 100 µM	> 100 µM	> 100 µM	> 100 µM	> 100 µM	> 100 µM
COC(=O)c1c(O)ccc2[nH]c3c(O)c4ccccc4cc3c12	48.9 µM	95.6 µM	> 100 µM	> 100 µM	> 100 µM	> 100 µM	> 100 µM	48.1 µM	78.4 µM	84.9 µM
CCCCCCCCCCCCCCCCOP(=O)(O)OCC(N)C(=O)O (centres undefined)	> 100 µM	41.6 µM	> 100 µM	37 µM	56.9 µM	50.4 µM	29 µM	61.3 µM	> 100 µM	30.8 µM
C=C1CC(Cn2ccc(=O)[nH]c2=O)(c2ccc(Cl)cc2)OC1=O (centres undefined)	24.5 µM	4.83 µM	13.4 µM	13.4 µM	5.38 µM	49.9 µM	4.47 µM	6.91 µM	19 µM	33 µM
S=c1[nH]n2c(CCCCCCCCc3nnc4sc(=S)[nH]n34)nnc2s1	> 100 µM	> 100 µM	> 100 µM	> 100 µM	> 100 µM	> 100 µM	> 100 µM	> 100 µM	> 100 µM	> 100 µM
CC(=O)Oc1c2c(c3n(c1=O)CCCC3)C(=O)N(c1ccccc1)C2=O	> 100 µM	> 100 µM	> 100 µM	> 100 µM	> 100 µM	> 100 µM	> 100 µM	> 100 µM	> 100 µM	> 100 µM
O=c1ccn(C2OC(CO)C(O)C2F)c(=O)n1Cc1ccccc1 (centres undefined)	> 100 µM	> 100 µM	> 100 µM	> 100 µM	> 100 µM	> 100 µM	> 100 µM	> 100 µM	> 100 µM	> 100 µM
COc1ccc2c3c([nH]c2c1)CCN(CCCC(=O)c1ccc(F)cc1)C3	29.1 µM	27.1 µM	18.3 µM	27.4 µM	44.9 µM	33.2 µM	36.2 µM	36.7 µM	33.9 µM	27.5 µM
O=C1CC[C@@]2(O)[C@H]3Cc4ccc(-c5ccccc5)c5c4[C@@]2(CCN3CC2CC2)[C@H]1O5	32.4 µM	30.3 µM	27.8 µM	25.2 µM	63.7 µM	50.1 µM	43.5 µM	41.2 µM	33.7 µM	32.2 µM
CC(O)(P(=O)(O)O)P(=O)(O)OCC(O)CN1CCOCC1 (centres undefined)	> 100 µM	> 100 µM	> 100 µM	> 100 µM	> 100 µM	> 100 µM	> 100 µM	> 100 µM	> 100 µM	> 100 µM
O=C(O)c1cnc(-n2[nH]c3c(c2=O)CCCC3)[nH]c1=O	> 100 µM	> 100 µM	> 100 µM	> 100 µM	> 100 µM	> 100 µM	> 100 µM	> 100 µM	> 100 µM	> 100 µM
CC(C)=CCc1[nH]c2ccccc2c1C1=C(O)C(=O)C(c2c(CC=C(C)C)[nH]c3ccccc23)=C(O)C1=O	7.78 µM	10.2 µM	6.34 µM	2.94 µM	6.31 µM	4.6 µM	15.4 µM	3.48 µM	17.3 µM	3.14 µM
Clc1cccc(NN=Nc2ccc(-c3nc4ccccc4s3)cc2)c1	45.9 µM	51.4 µM	> 100 µM	51.8 µM	92.5 µM	> 100 µM	40.6 µM	> 100 µM	74.1 µM	> 100 µM
Cn1c(CO)ccc1-c1ccc(-c2ccc[se]2)[se]1	> 100 µM	> 71.2 µM	> 100 µM		> 43.3 µM	4.78 µM	59.7 µM	> 100 µM	> 100 µM	> 100 µM
CCCCCCCCCCCCCCC(O)C[N+](C)(CCO)CCO (centres undefined)	18.8 µM	4.78 µM	12.1 µM	11.1 µM	> 38.1 µM	5.63 µM	9.13 µM	22 µM	49 µM	17 µM
C=C1C(O)C[C@H](OC(C)=O)[C@]2(C)C1C(OC(C)=O)[C@]1(C(C)(C)O)CC(O)C(C)=C1[C@@H](OC(=O)c1ccccc1)C2OC(C)=O (some centres undefined)	> 10 µM	> 10 µM	> 10 µM	> 10 µM	> 10 µM	> 10 µM	> 10 µM	> 10 µM	> 10 µM	> 10 µM
CC(C)(C)c1cc(OCc2nn3c(Cc4ccccc4)nnc3s2)c(Cl)cc1OCc1nn2c(Cc3ccccc3)nnc2s1	> 100 µM	> 100 µM	> 100 µM	> 100 µM	> 100 µM	> 100 µM	> 100 µM	> 100 µM	> 100 µM	> 100 µM
Cc1oc2c(c1C)S(=O)(=O)C(C#N)=C(N(C)C)N2	> 100 µM	> 100 µM	> 100 µM	> 100 µM	> 100 µM	> 100 µM	> 100 µM	> 100 µM	> 100 µM	> 100 µM
CC(=O)Oc1c(N2CCCCC2)c(C(=O)c2ccccc2)c(O)c2ccn(N(C)C)c12	58.1 µM	33.8 µM	29.3 µM	30.3 µM	> 100 µM	32.4 µM	49.8 µM	35.9 µM	42.3 µM	35.4 µM

Structure (SMILES)	TGI (OVCAR-8 ovarian)	TGI (786-0 renal)	TGI (HT29 colon)	TGI (UACC-62 melanoma)	TGI (K-562 leukemia)	TGI (NCI-H226 lung)	TGI (MOLT-4 leukemia)	TGI (HCT-15 colon)	TGI (NCI/ADR-RES ovarian)	TGI (UO-31 renal)
O=C1C(Cl)=C(N(C(=O)c2ccccc2)C(=O)c2ccccc2)C(=O)c2ccccc21	> 100 µM	34.7 µM	69.3 µM	19.8 µM	20.6 µM	> 100 µM	> 100 µM	9 µM	> 100 µM	15.7 µM
Cn1ncc2c(Cl)ncnc21	> 100 µM	> 100 µM	> 100 µM	> 100 µM	> 100 µM	> 100 µM	> 100 µM	> 100 µM	> 100 µM	> 100 µM
Nc1nc(Cl)cc(NC2(CO)CCC2)n1	> 100 µM	> 100 µM	> 100 µM	> 100 µM	> 100 µM	> 100 µM	> 100 µM	> 100 µM	> 100 µM	> 100 µM
CCOC(=O)C(NC(=O)c1ccccc1)(N1CCN(c2cc3c(cc2F)c(=O)c(C(=O)O)cn3CC)CC1)C(F)(F)F (centres undefined)	47.3 µM	> 100 µM	> 100 µM	> 100 µM	> 100 µM	90.7 µM	54.2 µM	64.9 µM	> 100 µM	98.1 µM
CCOC(=O)Nc1ccc2c(c1)c(CCCCCCc1nc3ccccc3c3ccc(NC(=O)OCC)cc13)nc1ccccc12	61.3 µM	42.4 µM	> 100 µM	> 100 µM	> 100 µM	81 µM	> 100 µM	> 100 µM	> 100 µM	> 100 µM
Cc1nc(C)c(N2CCNCC2)c(=O)[nH]1	> 100 µM	> 100 µM	> 100 µM	> 100 µM	> 100 µM	> 100 µM	> 100 µM	> 100 µM	> 100 µM	> 100 µM
CC(C)=CCC/C(C)=C/COc1c2ccoc2cc2oc(=O)ccc12	> 100 µM	> 100 µM	81.1 µM	38.3 µM	> 100 µM	87.6 µM	42.3 µM	> 100 µM	> 100 µM	59.7 µM
CCOC(=O)NC(OC)(C(F)(F)F)C(F)(F)F	> 100 µM	> 100 µM	> 100 µM	> 100 µM	> 100 µM	> 100 µM	> 100 µM	> 100 µM	> 100 µM	> 100 µM
COc1ccc(C2C(C#N)=C(S)N(C3OC(COC(C)=O)C(OC(C)=O)C(OC(C)=O)C3OC(C)=O)C(c3ccccc3)=C2C(C)=O)cc1 (centres undefined)	> 100 µM	> 100 µM	> 100 µM	> 100 µM	> 100 µM	> 100 µM	> 100 µM	> 100 µM	> 100 µM	99.5 µM
CC1CC/C(=C\c2ccc(F)cc2)C(=O)/C1=C/c1ccc(F)cc1 (centres undefined)	9.14 µM	8.42 µM	12.1 µM	24.7 µM	> 100 µM	24.1 µM	8.81 µM	5.39 µM	5.75 µM	23.6 µM
NC1=Nc2cc(Cl)ccc2Sc2nc3ccccc3n21	> 100 µM	> 100 µM	> 100 µM	> 100 µM	> 100 µM	> 100 µM	> 100 µM	> 100 µM	> 100 µM	> 100 µM
COC1=CC(=O)CC(C)C12Oc1c(Cl)c(OC)cc(OC)c1C2=O (centres undefined)	> 100 µM	> 100 µM	> 100 µM	> 100 µM	> 66.4 µM	> 100 µM	> 100 µM	> 100 µM	> 76.4 µM	> 88.1 µM
Nc1ncn2c(n1)nc1ccccc12	> 100 µM	> 100 µM	> 100 µM	> 100 µM	> 100 µM	> 100 µM	> 100 µM	> 100 µM	> 100 µM	> 100 µM
Cc1cc(S(=O)(=O)Nc2nc3ccccc3nc2-c2ccc(Cl)cc2)c(S)cc1Cl	51.6 µM	43.5 µM	31.4 µM	25.4 µM	70.6 µM	47.9 µM	42.2 µM	42.2 µM	36.9 µM	30.1 µM
NC(CSSCC(N)=NCC12CC3CC(CC(C3)C1)C2)=NCC12CC3CC(CC(C3)C1)C2	51.4 µM	> 100 µM	28.4 µM	26.1 µM	27.2 µM	43.3 µM	16.9 µM	25 µM	33.8 µM	46.7 µM
CC(C)(C)OC(=O)CN1CCNCCN(CC(=O)OC(C)(C)C)CCNCC1	> 100 µM	> 100 µM	> 100 µM	> 100 µM	> 100 µM	> 100 µM	> 100 µM	> 100 µM	> 100 µM	> 100 µM
O=c1[nH]cc(Cl)c(=O)[nH]1	> 100 µM	> 100 µM	> 100 µM	> 100 µM	> 100 µM	> 100 µM	> 100 µM	> 100 µM	> 100 µM	> 100 µM
Cc1cc(S(=O)(=O)Nc2nnc3cnc4ccccc4n23)c(S)cc1Cl	> 100 µM	> 100 µM	> 100 µM	> 100 µM	> 100 µM	> 100 µM	> 100 µM	> 100 µM	> 100 µM	> 100 µM
O=C(CCC=C(S(=O)(=O)c1ccccc1)S(=O)(=O)c1ccccc1)c1ccccc1	16.7 µM	11.8 µM	17.5 µM	19.7 µM	80.4 µM	37.3 µM	> 100 µM	20.8 µM	25.8 µM	18.3 µM
Cc1csc2c1-n1cccc1C2=O	> 100 µM	> 100 µM	> 100 µM	> 100 µM	> 100 µM	> 100 µM	> 100 µM	> 100 µM	> 100 µM	> 100 µM
COC1=CC2(CC(OC)=C1OC)OC21COc2ccccc2C1=O (centres undefined)	> 100 µM	> 100 µM	> 100 µM	> 100 µM	> 100 µM	> 100 µM	> 100 µM	> 100 µM	> 100 µM	> 100 µM
